Assay results published in patent publication US8580710B2, “Pesticidal active mixtures comprising aminothiazoline compounds” (BASF SE, priority 2008, dated 2013).
Where “and” joins values, the source holds several entries; their conditions need not be identical. Identical values can stand only once.

Key:
[1] = test system: vetch aphid (Megoura viciae); test: Test B.1: control of vetch aphid on broad bean leaf disks, contact or systemic; format: in vivo; details: sprayed on leaf disks, 5 days
Protocol: For evaluating control of vetch aphid (Megoura viciae) through contact or systemic means the test unit consisted of 24-well-microtiter plates containing broad bean leaf disks.
The compounds or mixtures were formulated using a solution containing 75 wt % water and 25 wt % DMSO. Different concentrations of formulated compounds or mixtures were sprayed onto the leaf disks at 2.5 μl, using a custom built micro atomizer, at two replications.
(§1) For experimental mixtures in these tests identical volumes of both mixing partners at the desired concentrations respectively, were mixed together.
After application, the leaf disks were air-dried and 5-8 adult aphids placed on the leaf disks inside the microtiter plate wells. The aphids were then allowed to suck on the treated leaf disks and incubated at 23±1° C., 50±5% RH (relative humidity) for 5 days. Aphid mortality and fecundity was then visually assessed.

[2] = test system: green peach aphid (Myzus persicae); test: Test B.2: control of green peach aphid through systemic means, artificial diet under membrane; format: in vivo; details: 3 days
Source text: For evaluating control of green peach aphid (Myzus persicae) through systemic means the test unit consisted of 96-well-microtiter plates containing liquid artificial diet under an artificial membrane.
The compounds or mixtures were formulated using a solution containing 75 wt % water and 25 wt % DMSO. Different concentrations of formulated compounds or mixtures were pipetted into the aphid diet, using a custom built pipetter, at two replications.
as §1
After application, 5-8 adult aphids were placed on the artificial membrane inside the microtiter plate wells. The aphids were then allowed to suck on the treated aphid diet and incubated at 23±1° C., 50±5% RH for 3 days. Aphid mortality and fecundity was then visually assessed. In all cases, a synergistic control effect according to Colby's equation was observed.

[3] = test system: boll weevil (Anthonomus grandis); test: Test B.3: control of boll weevil, insect diet with eggs; format: in vivo; details: sprayed on insect diet, 5 days
Protocol: For evaluating control of boll weevil (Anthonomus grandis) the test unit consisted of 24-well-microtiter plates containing an insect diet and 20-30 A. grandis eggs.
The compounds or mixtures were formulated using a solution containing 75 wt % water and 25 wt % DMSO. Different concentrations of formulated compounds or mixtures were sprayed onto the insect diet at 20 μl, using a custom built micro atomizer, at two replications.
as §1
After application, microtiter plates were incubated at 23±1° C., 50±5% RH for 5 days. Egg and larval mortality was visually assessed.

[4] = test system: Mediterranean fruitfly (Ceratitis capitata); test: Test B.4: control of Mediterranean fruitfly, insect diet with eggs; format: in vivo; details: 5 days
Protocol: For evaluating control of Mediterranean fruitfly (Ceratitis capitata) the test unit consisted of 96-well-microtiter plates containing an insect diet and 50-80 C. capitata eggs.
The compounds or mixtures were formulated using a solution containing 75 wt % water and 25 wt % DMSO. Different concentrations of formulated compounds or mixtures were sprayed onto the insect diet at 5 μl, using a custom built micro atomizer, at two replications.
as §1
(§2) After application, microtiter plates were incubated at 28±1° C., 80±5% RH for 5 days. Egg and larval mortality was visually assessed.

[5] = test system: tobacco budworm (Heliothis virescens); test: Test B.5: control of tobacco budworm, insect diet with eggs; format: in vivo; details: 5 days
Protocol: For evaluating control of tobacco budworm (Heliothis virescens) the test unit consisted of 96-well-microtiter plates containing an insect diet and 15-25 H. virescens eggs.
The compounds or mixtures were formulated using a solution containing 75 wt % water and 25 wt % DMSO. Different concentrations of formulated compounds or mixtures were sprayed onto the insect diet at 10 μl, using a custom built micro atomizer, at two replications.
as §1, §2

[6] = 10 ppm sprayed onto insect diet
[7] = 4 ppm in aphid diet, mortality and fecundity
[8] = 100 ppm sprayed onto insect diet
[9] = 0.4 ppm sprayed onto insect diet
[10] = 40 ppm sprayed onto insect diet

## abamectin
[1]; 0.08 ppm
  Average Control: 0%
[2]; 0.016 ppm in aphid diet
  Average Control [%]: 0%
[2]; 0.08 ppm in aphid diet
  Average Control [%]: 0%
[3]; 0.016 ppm
  Average Control: 25%
[4]; 0.016 ppm sprayed onto insect diet
  Average Control [%]: 0%

## Cc1cc(C)cc(CC(NC2=NCCS2)c2cccc3c2CCC3)c1 (stereo not drawn)
other
  melting point: 120 to 124 °C

## O=[N+]([O-])NC1=NCCN1Cc1ccc(Cl)nc1 [imidacloprid]
[1]; 0.016 ppm
  Average Control: 0%
[1]; 2 ppm
  Average Control: 50%
[2]; 0.4 ppm in aphid diet
  Average Control [%]: 50%

## Cc1cc(C)cc(CC(NC2=NCCS2)c2cccc3cccnc23)c1 (stereo not drawn)
other
  melting point: 95 to 96 °C

## CC1(C)C(C=C(Cl)Cl)C1C(=O)OC(C#N)c1cccc(Oc2ccccc2)c1 (stereo not drawn) [alphacypermethrin]
[1]; 0.08 ppm
  Average Control: 0%
[1]; 2 ppm
  Average Control: 50%
[3]; 0.04 ppm
  Average Control: 25%

## Cc1cc(C)cc(CC(NC2=NCCS2)c2cccc3c2C(C)(C)C(=O)N3C)c1 (stereo not drawn)
other
  melting point: 270 to 272 °C

## CN1COCN(Cc2cnc(Cl)s2)/C1=N\[N+](=O)[O-] [thiamethoxam]
[3]; 2 ppm
  Average Control: 25%
[4]; [6]
  Average Control [%]: 25%

## Cc1cc(C)cc(CC(N=C2NCCS2)c2cccc3c2OCCO3)c1 (stereo not drawn) [compound C.I-27]
[1]; 0.16 ppm
  Average Control: 0%
[2]; 0.16 ppm in aphid diet
  Average Control [%]: 0%
[2]; [7]
  Average Control [%]: 0%
[2]; 20 ppm in aphid diet
  Average Control [%]: 0%
[3]; 0.16 ppm
  Average Control: 0%
[3]; 0.8 ppm
  Average Control: 0%
[3]; 20 ppm
  Average Control: 0%
[3]; 100 ppm
  Average Control: 0%
[4]; 0.16 ppm sprayed onto insect diet
  Average Control [%]: 0%
[4]; 20 ppm sprayed onto insect diet
  Average Control [%]: 0%
[4]; 100 ppm sprayed onto insect diet, egg and larval mortality
  Average Control [%]: 0%
[5]; [8]
  Average Control [%]: 0%

## Cc1cc(C)cc(CC(N=C2NCCS2)c2cccc3c2OCC3)c1 (stereo not drawn) [compound C.I-47]
[1]; 0.16 ppm
  Average Control: 0%
[1]; 0.8 ppm
  Average Control: 50%
[2]; 0.8 ppm in aphid diet
  Average Control [%]: 0%
[2]; [7]
  Average Control [%]: 25% and 50%
[5]; 4 ppm sprayed onto insect diet, egg and larval mortality
  Average Control [%]: 0%

## Cc1cc(C)cc(CC(NC2=NCCS2)c2cccc3c2CCCC3)c1 (stereo not drawn)
other
  melting point: 139 to 141 °C

## CCOC(=O)OC1=C(c2cc(C)ccc2C)C(=O)N[C@]12CC[C@@H](OC)CC2 [spirotetramat]
[1]; 0.8 ppm
  Average Control: 0%
[2]; [7]
  Average Control [%]: 0%
[2]; 20 ppm in aphid diet
  Average Control [%]: 0%

## CNC(=O)c1cc(C#N)cc(C)c1NC(=O)c1cc(Br)nn1-c1ncccc1Cl [cyazypyr]
[1]; 0.4 ppm
  Average Control: 0%
[3]; 0.4 ppm
  Average Control: 0%
[4]; [6]
  Average Control [%]: 50%
[5]; [9]
  Average Control [%]: 0%

## N#CCNC(=O)c1cnccc1C(F)(F)F [flonicamid]
[1]; 0.8 ppm
  Average Control: 0%
[2]; [7]
  Average Control [%]: 0%
[3]; 100 ppm
  Average Control: 0%
[5]; [8]
  Average Control [%]: 0%

## CC(C)(C)c1ccc(CSc2cnn(C(C)(C)C)c(=O)c2Cl)cc1 [pyridaben]
[3]; 8 ppm
  Average Control: 50%
[4]; [10]
  Average Control [%]: 25%
[5]; [10]
  Average Control [%]: 0%

## N#Cc1nn(-c2c(Cl)cc(C(F)(F)F)cc2Cl)c(N)c1[S+]([O-])C(F)(F)F (stereo not drawn) [fipronil]
[2]; 2 ppm in aphid diet
  Average Control [%]: 50%
[4]; [9]
  Average Control [%]: 25%

## CNC(=O)c1cc(Cl)cc(C)c1NC(=O)c1cc(Br)nn1-c1ncccc1Cl [rynaxypyr]
[1]; 0.4 ppm
  Average Control: 0%
